Laboratory results as given in patent US8962574B2 (Boehringer Ingelheim International GmbH, priority 2008, dated 2015).

What was measured:
[1] = system: patients with atrial fibrillation at risk of stroke; test: RELY Clinical Trial, dabigatran 110 mg or 150 mg twice daily versus warfarin; assay type: in vivo
Description: The primary study outcome was stroke or systemic embolism. The primary safety outcome was major hemorrhage. Secondary outcomes were stroke, systemic embolism and death. […] All other bleeding was considered minor.
All analyses were based on intention-to-treat.

AF patients = details: ACTIVE W, warfarin arm; cited from earlier work

## CC(=O)CC(c1ccccc1)c1c(O)c2ccccc2oc1=O (racemic) [warfarin, 3-(α-acetonylbenzyl)4-hydroxycoumarin]
[1]; adjusted to INR 2.0 to 3.0
  ALT or AST >3xULN: (2.1) %
  ALT or AST >3xULN with concurrent bilirubin >2xULN: (0.4) %
  ALT or AST >3xULN with concurrent bilirubin >2xULN, number of patients: 22
  ALT or AST >3xULN, number of patients: 126
  Adverse Event Arthralgia: (5.5) %
  Adverse Event Arthralgia, number of patients: 328
  Adverse Event Atrial fibrillation: (5.4) %
  Adverse Event Atrial fibrillation, number of patients: 326
  Adverse Event Back pain: (5.5) %
  Adverse Event Back pain, number of patients: 331
  Adverse Event Chest pain: (5.7) %
  Adverse Event Chest pain, number of patients: 342
  Adverse Event Cough: (5.8) %
  Adverse Event Cough, number of patients: 345
  Adverse Event Diarrhea: (5.5) %
  Adverse Event Diarrhea, number of patients: 327
  Adverse Event Dizziness: (9.3) %
  Adverse Event Dizziness, number of patients: 555
  Adverse Event Dyspepsia: (1.4) %
  Adverse Event Dyspepsia, number of patients: 83
  Adverse Event Dyspnoea: (9.2) %
  Adverse Event Dyspnoea, number of patients: 550
  Adverse Event Fatigue: (5.9) %
  Adverse Event Fatigue, number of patients: 353
  Adverse Event Nasopharyngitis: (5.5) %
  Adverse Event Nasopharyngitis, number of patients: 327
  Adverse Event Peripheral edema: (7.6) %
  Adverse Event Peripheral edema, number of patients: 453
  Adverse Event Upper respiratory tract infection: (5.0) %
  Adverse Event Upper respiratory tract infection, number of patients: 297
  Adverse Event Urinary tract infection: (5.3) %
  Adverse Event Urinary tract infection, number of patients: 315
  Life threatening bleeding, Rate: 1.80 /100 Person Years
  Mortality rate (death from any cause): 4.13 % per year
  Other Major bleeding, Rate: 1.80 /100 Person Years
  Pulmonary embolism, Rate: 0.09 /100 Person Years
  Rate of hemorrhagic stroke: 0.38 % per year
  Rate of major hemorrhage (major bleeding): 3.46 % per year
  Rate of myocardial infarction: 0.54 % per year
  Rate of net benefit-risk outcome (major vascular events, major bleeding and death): 7.99 % per year
  Rate of primary outcome stroke or systemic embolism: 1.70 % per year
  Reason for discontinuation: Gastrointestinal bleeding: (0.9) %
  Reason for discontinuation: Gastrointestinal disorders (including pain, vomiting and diarrhea): (0.8) %
  Reason for discontinuation: Outcome event: (2.2) %
  Reason for discontinuation: Patient decision: (6.2) %
  Reason for discontinuation: SAE: (1.6) %
  Reason for discontinuation: SAE, number of patients: 95
  Stroke, systemic embolism, pulmonary embolism, myocardial infarction death or major bleed (net benefit), Rate: 7.99 /100 Person Years
  Study Drug Discontinuation At one year: 10%
  Study Drug Discontinuation At two years: (19) %
  hepatobiliary disorders (AE): (2.2) %
  hepatobiliary disorders (AE), number of patients: 132
  hepatobiliary disorders (SAE): (0.4) %
  hepatobiliary disorders (SAE), number of patients: 25
[1]; adjusted to INR 2.0 to 3.0, at 2.5 years
  Rate of discontinuation: 19%
[1]; adjusted to INR 2.0 to 3.0, listed as Warfarin
  Study Drug Discontinuation At one year: (10) %
AF patients
  Myocardial Infarction: 0.6% (warfarin)
  Stroke and systemic embolism (per 100 patient years): 1.5% (warfarin)
